Measurements published in ChEMBL document CHEMBL5096234, “Discovery, Optimization, and Evaluation of Selective CDK4/6 Inhibitors for the Treatment of Breast Cancer” (J Med Chem, 2022).

Experiments:
[1] = test system: MCF7; test: Induction of cell cycle arrest in human MCF7 cells assessed as accumulation of cells at G1 phase at 3 uM incubated for 24 hrs by propidium iodide staining based flow cytometry analysis (reference value: 57.38%); format: functional
[2] = […] stability in human liver microsomes assessed as half life preincubated for 10 mins followed by NADPH addition by LC-MS/MS analysis; format: ADME, Microsome
[3] = test system: MCF7; test: Induction of cell cycle arrest in human MCF7 cells assessed as accumulation of cells at G1 phase at 6 uM incubated for 24 hrs by propidium iodide staining based flow cytometry analysis (reference value: 57.38%); format: functional
[4] = test system: T47D; test: Induction of cell cycle arrest in human T47D cells assessed as accumulation of cells at G1 phase at 4 uM incubated for 24 hrs by propidium iodide staining based flow cytometry analysis (reference value: 69.55 %); format: functional
[5] = Tmax in Sprague-Dawley rat 1 mg/kg, iv by LC/MS/MS analysis; format: ADME, organism-based; conditions: in vivo
[6] = biological target: CDK7/Cyclin H/MNAT1 (Homo sapiens, UniProt P50613); test: Inhibition of CDK7/cyclin H/MAT1 (unknown origin) in presence of ATP by time resolved-FRET assay; format: protein-complex assay
Chain of CDK7/Cyclin H/MNAT1 (P51946 whole entry): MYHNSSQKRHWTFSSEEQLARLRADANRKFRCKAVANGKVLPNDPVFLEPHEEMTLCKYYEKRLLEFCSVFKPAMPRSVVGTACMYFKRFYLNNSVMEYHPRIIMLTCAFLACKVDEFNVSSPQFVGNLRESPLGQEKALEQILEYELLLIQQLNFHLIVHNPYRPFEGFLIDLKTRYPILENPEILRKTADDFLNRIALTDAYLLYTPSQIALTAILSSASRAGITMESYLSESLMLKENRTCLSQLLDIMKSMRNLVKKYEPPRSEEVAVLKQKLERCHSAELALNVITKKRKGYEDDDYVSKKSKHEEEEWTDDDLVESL
Chain of CDK7/Cyclin H/MNAT1 (P50613 whole entry): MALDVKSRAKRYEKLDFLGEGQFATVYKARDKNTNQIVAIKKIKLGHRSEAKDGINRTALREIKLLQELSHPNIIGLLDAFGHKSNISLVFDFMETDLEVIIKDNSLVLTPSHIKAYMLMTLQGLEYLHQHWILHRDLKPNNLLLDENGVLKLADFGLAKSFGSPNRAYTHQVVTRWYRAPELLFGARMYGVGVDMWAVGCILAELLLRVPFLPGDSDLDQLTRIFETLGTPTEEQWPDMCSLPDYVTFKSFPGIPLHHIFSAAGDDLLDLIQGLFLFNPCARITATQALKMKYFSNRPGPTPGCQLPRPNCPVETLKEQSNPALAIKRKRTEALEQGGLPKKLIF
Chain of CDK7/Cyclin H/MNAT1 (P51948 whole entry, further chain): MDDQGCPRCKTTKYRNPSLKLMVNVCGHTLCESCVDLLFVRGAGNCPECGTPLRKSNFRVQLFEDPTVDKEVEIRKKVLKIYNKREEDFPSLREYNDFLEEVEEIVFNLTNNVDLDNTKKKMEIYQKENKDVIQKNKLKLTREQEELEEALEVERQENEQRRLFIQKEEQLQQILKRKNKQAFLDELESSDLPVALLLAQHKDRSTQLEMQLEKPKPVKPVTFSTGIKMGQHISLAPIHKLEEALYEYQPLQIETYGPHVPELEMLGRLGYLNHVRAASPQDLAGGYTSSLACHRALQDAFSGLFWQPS

Compound `CCN1CCc2cc(-c3nc(Nc4ccc(N5CCNCC5)cn4)ncc3F)ccc2C1=O` has an Activity [1] of 83.91%, a half-life [2] of 108 min and an Activity [3] of 85.27%. It also gave an Activity [4] of 87.12%, a Tmax [5] of 1.98 min and an IC50 [6] of 2.6 µM.
